Assays:
[1] = tested on: IL-17-induced GROα secretion from HT-29 cells; assay: GROα release assay in human colorectal adenocarcinoma epithelial cell (HT-29, ELISA); format: cell-based; details: Homo sapiens, HT-29, 48 h, 10 ng/mL IL-17A, highest concentration 10 μM, read-out: Cellular assay HT29 cell/CXCL1 IC50
In short: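 HT-29 cells were exposed 48 h at 37°C to IL-17A (final 10 ng/mL) preincubated 15 min with compound (4-fold dilutions, top 10 μM). Secreted GROα was quantified by ELISA against a standard curve, and IC50 obtained by four-parameter fitting.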

[2] = molecular target: human IL-17A / human IL-17RA (Homo sapiens (Human), UniProt Q16552); assay: Human IL-17A biochemical assay (HTRF, blocking of IL-17A binding to IL-17RA); details: 0.4 nM IL-17A, 0.3 nM IL-17RA, max compound concentration 10 uM
human IL-17A / human IL-17RA, sequence (Q16552 24-155): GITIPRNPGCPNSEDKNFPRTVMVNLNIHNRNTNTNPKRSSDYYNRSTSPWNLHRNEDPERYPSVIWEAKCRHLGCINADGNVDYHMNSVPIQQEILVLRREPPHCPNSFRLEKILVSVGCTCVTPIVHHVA
In short: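 Inhibition of IL-17A binding to IL-17RA is measured by HTRF using 0.4 nM IL-17A, 0.3 nM IL-17RA and a 3 h compound pre-incubation at room temperature, pH 7.5. IC50 values come from four-parameter logistic fitting.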

Compound | IC50 [1] [µM] | IC50 [2] [µM]
Cc1nonc1C(=O)N[C@H](C(=O)Nc1ccc2c(c1)CC(C(=O)NC1CCCC1)(N1C[C@@H](C(C)C)NC1=O)C2)C(C1CC1)C1CC1 (stereo partly drawn) [Example 282, N-((2S)-1-((2-(cyclopentylcarbamoyl)-2-((R)-4-isopropyl-2-oxoimidazolidin-1-yl)-2,3-dihydro-1H-inden-5-yl)amino)-3,3-dicyclopropyl-1-oxopropan-2-yl)-4-methyl-1,2,5-oxadiazole-3-carboxamide] | 0.0953 | 0.0337
CNC(=O)C1(N2CC(C3CC3)CNC2=O)Cc2ccc(NC(=O)[C@@H](NC(=O)c3ccnn3C)C3CCCCC3)cc2C1 (stereo partly drawn) [Example 94, N-((1S)-1-cyclohexyl-2-((2-(5-cyclopropyl-2-oxotetrahydropyrimidin-1(2H)-yl)-2-(methylcarbamoyl)-2,3-dihydro-1H-inden-5-yl)amino)-2-oxoethyl)-1-methyl-1H-pyrazole-5-carboxamide] | 0.118 | 0.04
CNC(=O)C1(N2C[C@@H](Cc3ccc(OC)cc3)NC2=O)Cc2ccc(NC(=O)[C@@H](NC(=O)c3ccnn3C)C3CCCCC3)cc2C1 (stereo partly drawn) [Example 56, N-((1S)-1-cyclohexyl-2-((2-((R)-4-(4-methoxybenzyl)-2-oxoimidazolidin-1-yl)-2-(methylcarbamoyl)-2,3-dihydro-1H-inden-5-yl)amino)-2-oxoethyl)-1-methyl-1H-pyrazole-5-carboxamide] | 0.0237 | 0.02
CNC(=O)C1(N2C[C@@H](C(C)C)NC2=O)Cc2ccc(NC(=O)[C@@H](NC(=O)c3ccnn3C)C3CCC(F)(F)CC3)cc2C1 (stereo partly drawn) [Example 67, N-((1S)-1-(4,4-difluorocyclohexyl)-2-((2-((R)-4-isopropyl-2-oxoimidazolidin-1-yl)-2-(methylcarbamoyl)-2,3-dihydro-1H-inden-5-yl)amino)-2-oxoethyl)-1-methyl-1H-pyrazole-5-carboxamide] | 0.365 | 0.07
CNC(=O)C1(N2CC(C)(Cc3ccc(OC)cc3)CNC2=O)Cc2ccc(NC(=O)[C@@H](NC(=O)c3ccnn3C)C3CCCCC3)cc2C1 (stereo partly drawn) [Example 100, N-((1S)-1-cyclohexyl-2-((2-(5-(4-methoxybenzyl)-5-methyl-2-oxotetrahydropyrimidin-1(2H)-yl)-2-(methylcarbamoyl)-2,3-dihydro-1H-inden-5-yl)amino)-2-oxoethyl)-1-methyl-1H-pyrazole-5-carboxamide] | 2.56 | 0.886
CC1CN(Cc2cc3cc(NC(=O)[C@@H](NC(=O)c4ccnn4C)C4CCCCC4)ccc3o2)C(=O)N1 (stereo partly drawn) [Example 11, N-((1S)-1-cyclohexyl-2-((2-((4-methyl-2-oxoimidazolidin-1-yl)methyl)benzofuran-5-yl)amino)-2-oxoethyl)-1-methyl-1H-pyrazole-5-carboxamide] | 6.52 | 1.7
CC1CN(C2(C(N)=O)Cc3ccc(NC(=O)[C@@H](NC(=O)c4ccnn4C)C4CCCCC4)cc3C2)C(=O)N1 (stereo partly drawn) [Example 15, N-((1S)-2-((2-carbamoyl-2-(4-methyl-2-oxoimidazolidin-1-yl)-2,3-dihydro-1H-inden-5-yl)amino)-1-cyclohexyl-2-oxoethyl)-1-methyl-1H-pyrazole-5-carboxamide] | 1.24 | 0.55
Cc1nonc1C(=O)N[C@H](C(=O)Nc1ccc2c(c1)CC(C(=O)Nc1cncs1)(N1C[C@@H](C(C)C)NC1=O)C2)C(C1CC1)C1CC1 (stereo partly drawn) [Example 285, N-((2S)-1,1-dicyclopropyl-3-((2-((R)-4-isopropyl-2-oxoimidazolidin-1-yl)-2-(thiazol-5-ylcarbamoyl)-2,3-dihydro-1H-inden-5-yl)amino)-3-oxopropan-2-yl)-4-methyl-1,2,5-oxadiazole-3-carboxamide] | 0.0902 | 0.0714
Cn1nccc1C(=O)N[C@H](C(=O)Nc1ccc2c(c1)CC(C(=O)NC13CC(C1)C3)(N1CC3(CC3)CNC1=O)C2)C1CCCCC1 (stereo partly drawn) [Example 182, N-((1S)-2-((2-(bicyclo[1.1.1]pentan-1-ylcarbamoyl)-2-(6-oxo-5,7-diazaspiro[2.5]octan-5-yl)-2,3-dihydro-1H-inden-5-yl)amino)-1-cyclohexyl-2-oxoethyl)-1-methyl-1H-pyrazole-5-carboxamide] | 0.0529 | 0.0269
CC(C)[C@@H]1CN(C2(C(=O)N[C@@H](CO)C3CCCCC3)Cc3ccc(NC(=O)[C@@H](NC(=O)c4ccnn4C)C4CCCCC4)cc3C2)C(=O)N1 (stereo partly drawn) [Example 122, N-((1S)-1-cyclohexyl-2-((2-(((R)-1-cyclohexyl-2-hydroxyethyl)carbamoyl)-2-((R)-4-isopropyl-2-oxoimidazolidin-1-yl)-2,3-dihydro-1H-inden-5-yl)amino)-2-oxoethyl)-1-methyl-1H-pyrazole-5-carboxamide] | 0.013 | 0.01
Cc1conc1C(=O)N[C@H](C(=O)Nc1ccc2c(c1)CC(N1C[C@@H](C(F)(F)F)NC1=O)C2)C(C1CC1)C1CC1 (stereo partly drawn) [Example 239, N-((2S)-1,1-dicyclopropyl-3-oxo-3-((2-((S)-2-oxo-4-(trifluoromethyl)imidazolidin-1-yl)-2,3-dihydro-1H-inden-5-yl)amino)propan-2-yl)-4-methylisoxazole-3-carboxamide] | 3.21 | 0.977
Cc1nonc1C(=O)N[C@H](C(=O)Nc1ccc2c(c1)CC(c1nc(-c3ccccc3)c[nH]1)(N1CC3(CC3)CNC1=O)C2)C1CCC(F)(F)CC1 (stereo partly drawn) [Example 205, N-((1S)-1-(4,4-difluorocyclohexyl)-2-oxo-2-((2-(6-oxo-5,7-diazaspiro[2.5]octan-5-yl)-2-(4-phenyl-1H-imidazol-2-yl)-2,3-dihydro-1H-inden-5-yl)amino)ethyl)-4-methyl-1,2,5-oxadiazole-3-carboxamide] | 0.193 | 0.246
CC(C)[C@@H]1CN(C2(C(=O)N(C)C)Cc3ccc(NC(=O)[C@@H](NC(=O)c4ccnn4C)C4CCCCC4)cc3C2)C(=O)N1 (stereo partly drawn) [Example 135, N-((1S)-1-cyclohexyl-2-((2-(dimethylcarbamoyl)-2-((R)-4-isopropyl-2-oxoimidazolidin-1-yl)-2,3-dihydro-1H-inden-5-yl)amino)-2-oxoethyl)-1-methyl-1H-pyrazole-5-carboxamide] | 0.245 | 0.186
CNC(=O)C1(N2CC(C(C)(C)C)NC2=O)Cc2ccc(NC(=O)[C@@H](NC(=O)c3ccnn3C)C3CCCCC3)cc2C1 (stereo partly drawn) [Example 44, N-((1S)-2-((2-(4-(tert-butyl)-2-oxoimidazolidin-1-yl)-2-(methylcarbamoyl)-2,3-dihydro-1H-inden-5-yl)amino)-1-cyclohexyl-2-oxoethyl)-1-methyl-1H-pyrazole-5-carboxamide] | 0.231 | 0.047
Cc1nonc1C(=O)N[C@H](C(=O)Nc1ccc2c(c1)CC(C(=O)NC1(c3cc(F)ccc3F)CC1)(N1CC3(CC3)CNC1=O)C2)C1CCC(F)(F)CC1 (stereo partly drawn) [Example 233, N-((1S)-1-(4,4-difluorocyclohexyl)-2-((2-((1-(2,5-difluorophenyl)cyclopropyl)carbamoyl)-2-(6-oxo-5,7-diazaspiro[2.5]octan-5-yl)-2,3-dihydro-1H-inden-5-yl)amino)-2-oxoethyl)-4-methyl-1,2,5-oxadiazole-3-carboxamide] | 0.0901 | 0.0778
CNC(=O)C1(N2CC(C(C)C)NC2=O)Cc2ccc(NC(=O)[C@@H](NC(=O)c3nonc3C)C3CCCCC3)cc2C1 (stereo partly drawn) [Example 30, N-((1S)-1-cyclohexyl-2-((2-(4-isopropyl-2-oxoimidazolidin-1-yl)-2-(methylcarbamoyl)-2,3-dihydro-1H-inden-5-yl)amino)-2-oxoethyl)-4-methyl-1,2,5-oxadiazole-3-carboxamide] | 0.576 | 0.058
CNC(=O)C1(N2C[C@@H](C(C)C)NC2=O)Cc2ccc(NC(=O)[C@@H](NC(=O)c3cccc(Cl)c3)C3CCCCC3)cc2C1 (stereo partly drawn) [Example 69, 5-((S)-2-(3-chlorobenzamido)-2-cyclohexylacetamido)-2-((R)-4-isopropyl-2-oxoimidazolidin-1-yl)-N-methyl-2,3-dihydro-1H-indene-2-carboxamide] | 0.432 | 0.12
CCC(CC)OC(=O)C1(N2CC3(CC3)CNC2=O)Cc2ccc(NC(=O)[C@@H](NC(=O)c3nonc3C)C3CCC(F)(F)CC3)cc2C1 (stereo partly drawn) [Example 207, pentan-3-yl 5-((S)-2-(4,4-difluorocyclohexyl)-2-(4-methyl-1,2,5-oxadiazole-3-carboxamido)acetamido)-2-(6-oxo-5,7-diazaspiro[2.5]octan-5-yl)-2,3-dihydro-1H-indene-2-carboxylate] | 0.861 | 0.347
CNC(=O)C1(N2CC3(CC3)CNC2=O)Cc2cc3nc([C@@H](NC(=O)c4ccnn4C)C4CCCCC4)[nH]c3cc2C1 [Example 137, 2-((S)-cyclohexyl(1-methyl-1H-pyrazole-5-carboxamido)methyl)-N-methyl-6-(6-oxo-5,7-diazaspiro[2.5]octan-5-yl)-1,5,6,7-tetrahydroindeno[5,6-d]imidazole-6-carboxamide] | 1.49 | 0.413
Cn1nccc1C(=O)N[C@H](C(=O)Nc1ccc2c(c1)OC(CN1C[C@@H](C(F)(F)F)NC1=O)C2)C1CCC(F)(F)CC1 (stereo partly drawn) [Example 258, N-((1S)-1-(4,4-difluorocyclohexyl)-2-oxo-2-((2-(((S)-2-oxo-4-(trifluoromethyl)imidazolidin-1-yl)methyl)-2,3-dihydrobenzofuran-6-yl)amino)ethyl)-1-methyl-1H-pyrazole-5-carboxamide] | 0.209 | 0.108
